Key:
CDK9/CycT = biological target: T1, CDK9/CycT (Homo sapiens, UniProt P50750); test: Radiometric protein kinase assay (33PanQinase Activity Assay), kinase selectivity; assay type: biochemical; conditions: 23 different kinases, 10 μM compound versus DMSO control; FIG. 3
T1 construct: purchased ProQinase
Protocol: A radiometric protein kinase assay (33PanQinase® Activity Assay) was used for measuring the kinase activity of protein kinases employing exemplary CDK9 inhibitors to be used in the present invention (see FIG. 3). […] Activities of other kinases are not inhibited.
A similar experimental procedure is performed when the resulting activity within ^33PanQinase® assay is done. In advance buffers are prepared but in this case the pipetting sequence is first ATP solution diluted with assay buffer, DMSO or compound solution. The reaction (1 h at 30° C.) is started by addition of a substrate-kinase mix. During the incubation the kinase phosphorylates the substrate (different for each kinase). Due to the fact that the ATP solution contains ^33P-labelled ATP the substrate proteins are labeled with ^33P. The reaction is stopped by addition of excess H3PO4. If the reaction is performed in plates binding substrate proteins, said plates are washed to reduce unspecific signals (mainly not used ATP). […] Therefore, the incorporated radioactivity is detected by scintillation counting. Data is evaluated, processed and analyzed as described for the LANCE assays. […]
The reaction cocktails were incubated at 30° C. for 60 minutes. […] Incorporation of 33Pi (counting of “cpm”) was determined with a microplate scintillation counter (Microbeta, Wallac).

HCC2429 cells = test: Proliferation / cell viability assay (Cell Titer Glo) on HCC2429; assay type: cell-based; conditions: FIG. 1; for IC50: 72 h incubation, ATP content by CTG; for effect on proliferation of HCC2429 cells, in words: dose response experiments
Protocol: Proliferation assays were performed as described below under materials and methods. […] (Cpd B1 and Ro-3306) were applied at concentrations between 30 and 0.0137 μM. After 72 h incubation with compounds ATP content/proliferation was determined employing CTG (Promega). Relative proliferation values (compared to vehicle control) were used to calculate IC50 values (Excel fit; algorithm #205). IC50s of the respective compound (Y-axis; logarithmic scale) on proliferation of various cell lines (X-axis) are depicted in black bars. White bars indicate that an IC50 could not be determined due to too low activity and therefore was higher than the highest applied concentration in the assays (30 μM). IC50s of compounds on CDK9 inhibitor sensitive cell line HCC2429 are presented in grey bars.
Cell lines were maintained in RPMI 1640 cell culture medium+glutamine (PAN Biotech GmbH, Aidenbach, Germany; order no. P04-22100; P04-05500) supplemented with 10% fetal calf serum “Gold” (PAA Laboratories GmbH, Pasching, Austria; order no. A15-151) and grown in a humidified atmosphere at 37° C., 5% CO2. As a first step, an optimal cell density for each cell line was determined to guarantee linearity. For viability assays with compounds, cells were then seeded at a density of 200 to 1000 per well in 25 μl in 384-well plates (Greiner Bio-One, Frickenhausen, Germany; order no. 781080). After overnight incubation at 37° C./5% CO2, 25 nl or 75 nl compounds were added to each sample well by using BIOMEK FX^P Laboratory Automation Workstation (Beckman Coulter, USA). Wells with cells and 0.1% or 0.3% DMSO in culture medium were used as positive controls, wells with cells and 10 μM staurosporine (Selleck Chemicals, Huston, USA) in culture medium were used as negative controls. Upon incubation with compounds for 72 h at 37° C./5% CO2 25 μl Cell Titer Glo reagent (Promega, Madison, USA, order no. G7573; 1:2 diluted with cell culture medium) was added to each well to determine cell viability. 384well-plates were placed for 2 min on an orbital microplate shaker and incubated for further 10 min at room temperature resulting in a stabilization of light signal. Luminescence was measured by Envision Plate Reader (Perkin Elmer, USA). IC50 values were calculated with the software Excel Fit (IDBS, Guildford, UK) from 3-fold dilution series comprising 8 concentrations in duplicates.

CDK9/CyclinT1 = biological target: T2, CDK9/CyclinT1 (Homo sapiens, UniProt P50750); test: Lance Ultra KinaSelect Assay, CDK9; assay type: biochemical; conditions: FIG. 2
T2 construct: purchased Invitrogen
Description: (§1) The principle behind this enzymatic assay is based upon the phosphorylation of the Ulight-Peptide Substrat. It is detected by using a specific EU-labeled anti-phospho peptide antibody. […] Binding of an inhibitor to the kinase prevents phosphorylation of the Ulight-MBP Substrat, resulting in a loss of FRET.
as §1
This compound predilution was then serial diluted 1:3 over 8 steps in DMSO and briefly spun down. Each compound solution was now diluted 1:20 in Enzymatic Buffer (HEPES: 50 mM, pH: 7.5; MgCl2: 10 mM; EGTA: 1 mM; DTT: 2 mM; Tween-20: 0.01%), mixed thoroughly and spun down.

[1] = tested on: BrdNut mutated cell lines (HCC2429, TY-82, 690100, 143100); test: Proliferation assay on Brd-4-Nut mutated versus wild type cell lines (FIG. 4); assay type: cell-based; conditions: mutated: HCC2429, TY-82, 690100, 143100, wild type: Hela, HCC366, H460, HCC1143, hPBMCs
Protocol: The proliferation results are presented as IC50 in μM. First, the anti-proliferative effect of CDK9 inhibitors is much more pronounced on BrdNut mutated cell lines (=sensitive cell lines).
Cell lines were maintained in RPMI 1640 cell culture medium+glutamine (PAN Biotech GmbH, Aidenbach, Germany; order no. P04-22100; P04-05500) supplemented with 10% fetal calf serum “Gold” (PAA Laboratories GmbH, Pasching, Austria; order no. A15-151) and grown in a humidified atmosphere at 37° C., 5% CO2. As a first step, an optimal cell density for each cell line was determined to guarantee linearity. For viability assays with compounds, cells were then seeded at a density of 200 to 1000 per well in 25 μl in 384-well plates (Greiner Bio-One, Frickenhausen, Germany; order no. 781080). After overnight incubation at 37° C./5% CO2, 25 nl or 75 nl compounds were added to each sample well by using BIOMEK FX^P Laboratory Automation Workstation (Beckman Coulter, USA). Wells with cells and 0.1% or 0.3% DMSO in culture medium were used as positive controls, wells with cells and 10 μM staurosporine (Selleck Chemicals, Huston, USA) in culture medium were used as negative controls. […] Luminescence was measured by Envision Plate Reader (Perkin Elmer, USA). […]

T2 sequence (P50750 whole entry): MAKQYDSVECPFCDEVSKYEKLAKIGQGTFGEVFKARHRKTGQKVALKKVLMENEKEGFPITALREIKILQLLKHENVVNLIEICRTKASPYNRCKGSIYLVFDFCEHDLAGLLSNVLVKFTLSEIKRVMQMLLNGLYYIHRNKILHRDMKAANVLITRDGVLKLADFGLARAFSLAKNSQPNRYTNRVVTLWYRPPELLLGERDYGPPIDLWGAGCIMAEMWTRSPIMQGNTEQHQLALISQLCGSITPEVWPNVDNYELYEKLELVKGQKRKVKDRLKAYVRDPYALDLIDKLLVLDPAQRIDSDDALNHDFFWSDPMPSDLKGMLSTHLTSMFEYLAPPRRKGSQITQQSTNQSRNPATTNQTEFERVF
T2 sequence (O60563 whole entry partner): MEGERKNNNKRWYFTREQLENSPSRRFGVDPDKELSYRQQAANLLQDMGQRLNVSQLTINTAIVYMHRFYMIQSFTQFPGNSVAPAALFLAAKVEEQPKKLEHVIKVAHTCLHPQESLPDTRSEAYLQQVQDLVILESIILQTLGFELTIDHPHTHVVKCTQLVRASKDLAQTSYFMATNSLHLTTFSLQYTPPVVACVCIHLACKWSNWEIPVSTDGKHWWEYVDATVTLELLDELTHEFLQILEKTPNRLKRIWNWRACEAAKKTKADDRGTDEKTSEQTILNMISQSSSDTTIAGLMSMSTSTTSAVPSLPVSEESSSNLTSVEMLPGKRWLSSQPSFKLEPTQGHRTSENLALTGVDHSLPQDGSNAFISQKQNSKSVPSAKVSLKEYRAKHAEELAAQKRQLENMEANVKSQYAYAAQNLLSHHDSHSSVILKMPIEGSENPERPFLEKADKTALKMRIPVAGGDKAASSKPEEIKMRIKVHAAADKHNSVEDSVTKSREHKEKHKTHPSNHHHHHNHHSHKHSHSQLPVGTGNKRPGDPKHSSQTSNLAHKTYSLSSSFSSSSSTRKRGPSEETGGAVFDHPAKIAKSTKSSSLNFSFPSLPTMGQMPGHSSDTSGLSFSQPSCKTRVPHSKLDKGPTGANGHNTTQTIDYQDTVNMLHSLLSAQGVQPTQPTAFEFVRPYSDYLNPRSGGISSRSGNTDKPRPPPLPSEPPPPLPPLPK
T1 sequence (P50750 whole entry): as the sequence (P50750 whole entry) above
T1 sequence (O60563 whole entry partner): as the sequence (O60563 whole entry partner) above

Row | SMILES | residual kinase activities / kinase selectivity, in words (CDK9/CycT) | IC50 (HCC2429 cells; Homo sapiens, HCC2429) | effect on proliferation of HCC2429 cells, in words (HCC2429 cells) | IC50 (HCC2429 cells) | CDK9 inhibition potency, in words (CDK9/CyclinT1) | proliferation inhibition in mutated, sensitive cell lines compared with wild type cell lines, in words [1]
1 | COc1ccccc1-c1ncnc(Nc2cccc(CS(N)(=O)=O)c2)n1 [Cpd B1, 3-[(4-(2-Methoxyphenyl)-1,3,5-triazin-2-yl)amino]benzenemethanesulfonamide] | inhibits only CDK9 with high potency | 151 nM | potently affected proliferation |  |  | 
2 | O=C1NC(=NCc2cccs2)S/C1=C\c1ccc2ncccc2c1 [Ro-3306] |  |  | did not show comparable effects | > 10000 nM |  | 
3 | COc1ccccc1-c1cc(Nc2cccc(CS(N)(=O)=O)c2)ncn1 [1073485-20-7P, 3-[[6-(2-methoxyphenyl)-4-pyrimidinyl]amino]-Benzenemethanesulfonamide] |  |  |  |  | relatively weak | much more potent in mutated, sensitive cell lines

— patent US20140287454A1, “SUSCEPTIBILITY TO SELECTIVE CDK9 INHIBITORS” (MAX-PLANCK-GESELLSCHAFT ZUR FÖRDERUNG DER WISSENSCHAFTEN …, priority 2011, published 2014)
